For the experiment, the system named is L1210 leukemia ip in BDF1 mice, survival T/C. In words: NCI In Vivo Anticancer Drug Screen. Data for tumor model L1210 Leukemia (intraperitoneal) in B6D2F1 (BDF1) mice. The note with it: endpoint: mean survival time, higher = longer survival. The method in brief: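 Transplantable tumor model; survival measured in treated vs vehicle control mice. Value = treated/control.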

Setting [1] is: dose: 200.0 mg/kg/injection, schedule: Q01DX009 (ip), vehicle: saline.
Where [2] appears, read: dose: 100.0 mg/kg/injection, schedule: Q04DX003 (ip), vehicle: saline with Tween-80.
The mark [3] stands for this setting: dose: 100.0 mg/kg/injection, schedule: Q04DX002 (ip), vehicle: Klucel (hydroxypropylcellulose) (HPC).
Where [4] appears, read: dose: 200.0 mg/kg/injection, schedule: Q04DX002 (ip), vehicle: Klucel (hydroxypropylcellulose) (HPC).
The mark [5] stands for this setting: dose: 100.0 mg/kg/injection, schedule: Q04DX002 (ip), vehicle: saline with Tween-80.
The mark [6] stands for this setting: dose: 100.0 mg/kg/injection, schedule: Q01DX001 (ip), vehicle: saline with Tween-80.
Where [7] appears, read: dose: 200.0 mg/kg/injection, schedule: Q01DX001 (ip), vehicle: saline with Tween-80.
The mark [8] stands for this setting: dose: 200.0 mg/kg/injection, schedule: Q01DX009 (ip), vehicle: saline with Tween-80.
[9] abbreviates: dose: 400.0 mg/kg/injection, schedule: Q01DX001 (ip), vehicle: saline with Tween-80.
[10] abbreviates: dose: 100.0 mg/kg/injection, schedule: Q04DX003 (ip), vehicle: Klucel (hydroxypropylcellulose) (HPC).
[11] abbreviates: dose: 200.0 mg/kg/injection, schedule: Q04DX003 (ip), vehicle: Klucel (hydroxypropylcellulose) (HPC).
The mark [12] stands for this setting: dose: 400.0 mg/kg/injection, schedule: Q04DX003 (ip), vehicle: Klucel (hydroxypropylcellulose) (HPC).
[13] abbreviates: dose: 100.0 mg/kg/injection, schedule: Q01DX009 (ip), vehicle: Klucel (hydroxypropylcellulose) (HPC).
[14] abbreviates: dose: 200.0 mg/kg/injection, schedule: Q01DX009 (ip), vehicle: Klucel (hydroxypropylcellulose) (HPC).
[15] abbreviates: dose: 400.0 mg/kg/injection, schedule: Q01DX009 (ip), vehicle: Klucel (hydroxypropylcellulose) (HPC).

Where “and” joins values, the source holds several entries; their conditions need not be identical. Equal values may be shown once. Toxic doses and inconclusive results are not listed.

For the compound `O=C(c1ccccc1)N1CC1`, the T/C (dose: 25.0 mg/kg/injection, schedule: Q01DX009 (ip), vehicle: water) was 95 % of control; the T/C (dose: 50.0 mg/kg/injection, schedule: Q01DX009 (ip), vehicle: water) was 93 % of control; the T/C (dose: 100.0 mg/kg/injection, schedule: Q01DX009 (ip), vehicle: water) is 86 % of control; the T/C (dose: 200.0 mg/kg/injection, schedule: Q01DX009 (ip), vehicle: water) is 88 % of control; the T/C (dose: 400.0 mg/kg/injection, schedule: Q01DX009 (ip), vehicle: water) was 90 % of control.

As for `O=C(O)CC(NC(=O)c1ccccc1)C(=O)O` (centres undefined), the T/C is 93 % of control (dose: 50.0 mg/kg/injection, schedule: Q01DX009 (ip), vehicle: saline); 89 % of control (dose: 100.0 mg/kg/injection, schedule: Q01DX009 (ip), vehicle: saline); 97 % of control under setting [1].

Consider `CCN(CC)Cc1cc(Nc2cc(C)nc(/N=C(\N)Nc3cc(Cl)cc(Cl)c3)n2)ccc1O`, for which the T/C under setting [2] is 98 % of control.

Take `Cc1cc(C)c(NC(=O)C2CCCCC2C(=O)O)c(C)c1` (centres undefined): the T/C is, setting by setting: under setting [3], 99 % of control; under setting [4], 92 % of control; (dose: 400.0 mg/kg/injection, schedule: Q04DX002 (ip), vehicle: Klucel (hydroxypropylcellulose) (HPC)) 99 % of control.

`COc1cc2c(cc1OC)C1Cc3cc(OC)c(OC)cc3C(C2)N1`: the T/C (dose: 75.0 mg/kg/injection, schedule: Q01DX001 (ip), vehicle: saline) was 97 % of control; the T/C (dose: 150.0 mg/kg/injection, schedule: Q01DX001 (ip), vehicle: saline) was 97 % of control; the T/C (dose: 300.0 mg/kg/injection, schedule: Q01DX001 (ip), vehicle: saline) is 97 % of control.

Take `CCOC(=O)/C(O)=C\c1cc(OC)n[n+]([O-])c1Cl`: the T/C is, setting by setting: (dose: 25.0 mg/kg/injection, schedule: Q04DX002 (ip), vehicle: saline with Tween-80) 102 % of control; (dose: 50.0 mg/kg/injection, schedule: Q04DX002 (ip), vehicle: saline with Tween-80) 98 % of control; under setting [5], 102 % of control.

On to `CN(C)N=Nc1c(Cl)cc(Cl)cc1C(N)=O`, for which the T/C is, setting by setting: under setting [6], 108 % of control; (dose: 100.0 mg/kg/injection, schedule: Q01DX009 (ip), vehicle: saline with Tween-80) 111 % of control; under setting [2], 106 % of control; (dose: 133.0 mg/kg/injection, schedule: Q01DX009 (ip), vehicle: saline with Tween-80) 123 % of control; under setting [7], 111 % of control; under setting [8], 165 % of control. The T/C was 115 % of control under setting [1]; 110 % of control (dose: 200.0 mg/kg/injection, schedule: Q04DX003 (ip), vehicle: saline with Tween-80); 150 % of control (dose: 300.0 mg/kg/injection, schedule: Q01DX009 (ip), vehicle: saline with Tween-80); 100 % of control (dose: 300.0 mg/kg/injection, schedule: Q01DX009 (ip), vehicle: saline); 117 % of control under setting [9].

Turning to `Oc1c(Br)cc(Nc2c3ccccc3nc3ccccc23)cc1Br`, the T/C under setting [5] was 100 % of control; the T/C (dose: 200.0 mg/kg/injection, schedule: Q04DX002 (ip), vehicle: saline with Tween-80) is 95 % of control; the T/C (dose: 400.0 mg/kg/injection, schedule: Q04DX002 (ip), vehicle: saline with Tween-80) is 100 % of control.

For `O=Nc1ccc(NO)c2ccccc12`, the T/C is 108 % of control (dose: 12.5 mg/kg/injection, schedule: Q04DX003 (ip), vehicle: saline); 100 % of control (dose: 25.0 mg/kg/injection, schedule: Q04DX003 (ip), vehicle: saline + alcohol); 102 % of control (dose: 25.0 mg/kg/injection, schedule: Q04DX003 (ip), vehicle: saline); 100 % of control (dose: 50.0 mg/kg/injection, schedule: Q04DX003 (ip), vehicle: saline + alcohol); 100 % of control (dose: 50.0 mg/kg/injection, schedule: Q04DX003 (ip), vehicle: saline); 96 % of control (dose: 100.0 mg/kg/injection, schedule: Q04DX003 (ip), vehicle: saline + alcohol). Moreover, where the note is “dose: 100.0 mg/kg/injection, schedule: Q04DX003 (ip), vehicle: saline”, the T/C is 99 % of control.

Consider `CO[C@@H]([CH2][Hg][S]C#N)[C@@H]([CH2][Hg][S]C#N)OC`, for which the T/C runs as follows: (dose: 6.25 mg/kg/injection, schedule: Q01DX009 (ip), vehicle: saline sonified) 94 % of control; (dose: 12.5 mg/kg/injection, schedule: Q01DX009 (ip), vehicle: saline sonified) 90 % of control; (dose: 12.5 mg/kg/injection, schedule: Q04DX003 (ip), vehicle: saline sonified) 97 % of control; (dose: 25.0 mg/kg/injection, schedule: Q01DX009 (ip), vehicle: saline sonified) 93 % of control; (dose: 25.0 mg/kg/injection, schedule: Q04DX003 (ip), vehicle: saline sonified) 88 % of control.

In the case of `CCCC/C=C/CO`, the T/C (dose: 25.0 mg/kg/injection, schedule: Q01DX009 (ip), vehicle: saline with Tween-80) was 97 % of control; the T/C (dose: 50.0 mg/kg/injection, schedule: Q01DX009 (ip), vehicle: saline with Tween-80) is 97 % of control and 100 % of control; the T/C under setting [8] was 97 % of control and 100 % of control.

As for `CC(=O)Oc1ccc(/C=C(\NC(=O)c2ccccc2)C(=O)O)cc1`, the T/C was 95 % of control under setting [10], 91 % of control under setting [11] and 91 % of control under setting [12].

Consider `CCOC(=O)c1ccc(Nc2sc(C(=O)c3ccc(C)cc3C)c(N)c2C#N)cc1`, for which the T/C was 89 % of control (dose: 100.0 mg/kg/injection, schedule: Q04DX002 (ip), vehicle: gum acacia); 92 % of control (dose: 200.0 mg/kg/injection, schedule: Q04DX002 (ip), vehicle: gum acacia); 99 % of control (dose: 400.0 mg/kg/injection, schedule: Q04DX002 (ip), vehicle: gum acacia).

As to `CC(Br)CCON1C(=O)c2ccccc2C1=O` (centres undefined), the T/C is, setting by setting: (dose: 50.0 mg/kg/injection, schedule: Q01DX001 (ip), vehicle: saline) 112 % of control; (dose: 100.0 mg/kg/injection, schedule: Q01DX001 (ip), vehicle: saline) 102 % of control; (dose: 200.0 mg/kg/injection, schedule: Q01DX001 (ip), vehicle: saline) 96 % of control; (dose: 400.0 mg/kg/injection, schedule: Q01DX001 (ip), vehicle: saline) 96 % of control.

`Cc1cccc(OCC(O)CN(Cc2ccsc2)c2ccccn2)c1` (centres undefined): the T/C is 94 % of control under setting [3] and 106 % of control under setting [4].

As to `CCCCCCCC(C(=O)O)C(C)C` (centres undefined), the T/C is 94 % of control under setting [6], 106 % of control under setting [7] and 105 % of control under setting [9].

`CCOC(=O)c1ccc(C(=O)OCC)c(Cl)n1`: the T/C was 97 % of control under setting [13]; 105 % of control under setting [10]; 95 % of control under setting [14]; 97 % of control under setting [11]; 97 % of control under setting [15]; 102 % of control under setting [12].

As for `CC1CCCCC1OC(=O)CCN1CC1` (centres undefined), the T/C by setting is: (dose: 3.0 mg/kg/injection, schedule: Q01DX009 (ip), vehicle: Klucel (hydroxypropylcellulose) (HPC)) 94 % of control; (dose: 6.0 mg/kg/injection, schedule: Q01DX009 (ip), vehicle: Klucel (hydroxypropylcellulose) (HPC)) 94 % of control; (dose: 12.0 mg/kg/injection, schedule: Q01DX009 (ip), vehicle: Klucel (hydroxypropylcellulose) (HPC)) 100 % of control; (dose: 25.0 mg/kg/injection, schedule: Q01DX009 (ip), vehicle: Klucel (hydroxypropylcellulose) (HPC)) 94 % of control and 102 % of control; (dose: 50.0 mg/kg/injection, schedule: Q01DX009 (ip), vehicle: Klucel (hydroxypropylcellulose) (HPC)) 109 % of control; (dose: 50.0 mg/kg/injection, schedule: Q04DX003 (ip), vehicle: Klucel (hydroxypropylcellulose) (HPC)) 108 % of control. In addition, the T/C runs as follows: under setting [10], 97 % of control and 108 % of control; under setting [11], 104 % of control.

With `CCOC(=O)/C(C)=C\C1C(C)=CCCC1(C)C` (centres undefined), the T/C runs as follows: under setting [13], 104 % of control; under setting [14], 102 % of control; under setting [15], 96 % of control.

The record behind these values is PubChem BioAssay AID248 (DTP/NCI, 2004).
